Reference: patent publication US7678884B2, “Biologically active peptide and agent containing the same” (Seikagaku Corporation, priority 2003, dated 2010)
Ends that are not written are not given here.

Tests used:
PDL cells [1] = experiment: Cell differentiation of PDL cells (alkaline phosphatase activity, Bessey-Lowry method); assay type: cell-based, human; details: peptide at various concentrations, 2% FBS medium; one week after confluent state; versus control (FIG. 4)
Excerpt: (§1) PDL cells were isolated from a healthy premolar carefully extracted from a patient who visited a hospital to extract teeth for orthodontic treatment so that periodontal ligament should not be damaged as far as possible, and cultured. The extracted tooth was washed with sterilized physiological saline and phosphate-buffered saline (PBS, Nissui), and then periodontal ligament existing in ⅓ of the tooth root at the center was scraped off with a sharp knife. The pieces of periodontal ligament were transferred to a plastic plate and minced into small fragments using a round-blade knife. Tissue fragments were left standing in a plate having a diameter of 35 mm (FALCON) and cultured in Dulbecco's modified Eagle medium (DMEM, Nissui) containing antibiotics (100 U/ml of penicillin G, 100 μg/ml of streptomycin and 250 μg/ml of gentamicin) and 10% fetal bovine serum (FBS, EQUITECH-BIO) at 37° C. under 5% CO2. Then, cells released from the periodontal ligament tissue fragments were subcultured under the same conditions, and the 3rd to 5th generation cells were used for experiments. • (ii) Mouse-derived Osteoblasts
As an index of cell differentiation, alkaline phosphatase (ALP) activity of cells was determined. Cells were inoculated in a 24-well culture plate at a ratio of 5×10^3 cells/well, added with the peptide (a) at various concentrations and cultured in DMEM or αMEM containing 2% FBS. One week after the time point when the cells reached a confluent state, ALP activity was determined by the following enzymochemical method (Bessey-Lowry method, Bessey O A, Lowry O H and Brock M J, A method for the rapid determination of alkaline phosphatase with five cubic millimeter of serum, J. Biol. Chem., 164:321-329, 1946).
The cultured cells were washed with PBS and then disrupted in 10 mM Tris-HCl buffer (pH 7.4, 500 μl) for 40 seconds by using an ultrasonic homogenizer (Handy Sonic model UR-20P, Tomy Seiko) and stirred. Then, 25 μl of this sample liquid was added to 125 μl of ALP buffer (0.1 M carbonate buffer, pH 9.8, 6.7 mM p-nitrophenyl phosphate, 2 mM MgCl2) and incubated at 37° C. for 30 minutes. The reaction was terminated by addition of 125 μl of 0.2 N NaOH, and absorbance was measured at 405 nm by using a microplate reader (Model 550, Bio-Rad Laboratories).
Further, the ALP activity in DMEM containing 2% FBS and DMEM or αMEM containing 2% FBS added with peptide (c) at various concentrations was also similarly examined. The symbol “cont” in FIG. 4 indicates the results for the cells cultured in DMEM containing 2% FBS alone, “PN” indicates the results for the cells cultured in the medium added only with the peptide (a), and “PC” indicates the results for the cells cultured in the medium added only with the peptide (c). In FIG. 4, “pg” and “ng” represent “pg/ml” and “ng/ml,” respectively.
Further, in addition to the peptide (a) (derived from swine), the human-derived peptide (b) and BMP were similarly examined. The results of ALP activity measurement performed when the cells reached a confluent state are shown in FIG. 5, and the results of ALP activity measurement performed one week after the confluent state was attained are shown in FIG. 6. The symbol “cont” in the figures indicates the results for the cells cultured in DMEM containing 2% FBS alone, “B” indicates the results for the cells cultured in the medium added only with BMP2, “PN” indicates the results for the cells cultured in the medium added only with the peptide (a), and “HN” indicates the results for the cells cultured in the medium added only with the peptide (b) In the figures, the unit of numerical values shown after “B,” “PN” and “HN” is “ng/ml.”

[2] = tested on: Human-derived Periodontal Ligament Cells (PDL Cells); experiment: Cell growth of PDL cells (cell number by Coulter counter); assay type: cell-based; details: peptide added at various concentrations to DMEM containing 2% FBS; counted on Days 4 and 6; versus control medium (FIG. 1, FIG. 2)
Excerpt: as §1, with “Then, cells released from the periodontal ligament tissue fragments were subcultured under the same conditions, and the 3rd to 5th generation cells were used for experiments. • (ii) Mouse-derived Osteoblasts” left out
The PDL cells prepared in (1) were inoculated on a 24-well culture plate (FALCON) at a ratio of 5×10^3 cells/well. […] On Days 4 and 6, the cells were separated and dispersed by using PBS containing 0.08% trypsin and 0.04% ethylenediaminetetraacetic acid (EDTA), and cell number was counted by using a Coulter counter (COULTER Z1, Coulter Electronics). […]

PDL cells [3] = experiment: Calcification product forming ability of PDL cells (Dahl's calcium staining, alizarin red S); assay type: cell-based, human; details: peptide at various concentrations, 10 mM sodium β-glycerophosphate, three weeks after confluent state
Procedure: The following experiment was performed to examine effect of the peptide on calcification product forming ability of cells.
To assess calcification ability of cells, Dahl's calcium staining was performed. The PDL cells were inoculated on a 24-well culture plate at a ratio of 5×10^3 cells/well, and cultured in 2S-containing DMEM added with the peptide (a) or (c) at various concentrations and adjusted by addition of 10 mM sodium β-glycerophosphate. Three weeks after the cells reached a confluent state, the cells were washed with PBS, fixed with neutrally buffered formalin and stained with alizarin red S (Wako Pure Chemical Industries).

NKAQQPQIKRDAWRF [(c)]
significantly increased: ALP activity of the PDL cells (PDL cells [1]) | PDL cell number (cell growth promoting effect) [2] | calcification ability of the PDL cells (PDL cells [3])
